Assay results published in a melting point compilation (Tetko et al.; mined from patent text by program, amines drawn as free bases though some values may be those of a salt).

| Compound | melting point |
| --- | --- |
| CC(C)(C)OC(=O)CN(C(=O)CNC(=O)Nc1ccc(Cl)cc1)c1ccccc1C(=O)c1ccccc1 | 196 to 197 °C |
| C1=CC(c2ccccc2)(c2ccc(N3CCOCC3)cc2)Oc2cc(N3CCOCC3)c3ccccc3c21 (stereo not given) | 187 to 188 °C |
| COc1nccc2c1COC2=O | 90 °C |
| COc1ccc(Cn2c3ccc(Cl)cc3c3c(C(=O)Nc4c(Cl)cncc4Cl)ccc(OC)c32)cc1 | 257 to 258 °C |
| CCCCN(CC(=O)N1c2ccccc2N(C)C(=O)c2cnc(-c3ccccc3)nc21)C(C)(C)C | 111 to 113 °C |
| COC(=O)c1cccc(OC(F)(F)C(F)Br)c1 (stereo not given) | 88 to 90 °C |
| COc1ccc2cc(C=CC(C)=O)ccc2c1 | 114 to 116 °C |
| CCCCCCCCCCCCn1nnnc1NC(=O)Nc1c(C(C)C)cccc1C(C)C | 80 to 88 °C |
| CCOC[C@H]1CN(c2ccc(OCc3ccccc3)cc2)C(=O)O1 | 92 °C |
| Cc1oc2cc(O)ccc2c(=O)c1C#N | > 300 °C |
| O=C1COc2ccc3ccccc3c2N1 | 219 to 220 °C |
| CN(C)CCNC(=O)Oc1ccc(Cl)cc1Cn1nc(-c2ccc(C(F)(F)F)cc2)oc1=O | 158 to 159 °C |
| CC(C)(C)CCNC(=O)N(CCCl)N=O | 43 to 43.5 °C |
| Cc1nc(OCCCc2cc(OC(C)C)nn2Cc2ccc(Cl)cc2Cl)c(CC(=O)O)s1 | 75 to 77 °C |
| CC1(C)OC(=O)C(Sc2nccs2)=C1c1ccc(S(C)(=O)=O)cc1 | 174 to 176 °C |
| O=C(O)c1ccccc1Sc1ccc(Cl)cc1 | 240 °C |
| Cc1cc(-c2ccc(-c3ccoc3)cc2)n(-c2ccc(S(C)(=O)=O)cc2)c1 | 193 to 195 °C |
| O=C(O)Cn1c(=O)c(=O)[nH]c2ccc(Cl)cc21 | > 285 °C |
| CCCCOC(=O)c1cc(=O)c2c3c(cc(Cl)c2o1)-c1ccc(S(=O)(=O)O)cc1CO3 | 95 to 97 °C |
| CCOC(=O)C1=Cc2ccsc2S(=O)(=O)N1c1cccc(OC)c1 | 107 to 109 °C |
| CC(=O)OC1CSC(Oc2cncc(-c3cccc(C#N)c3)c2)C(OC(C)=O)C1OC(C)=O (stereo not given) | 130 to 131 °C |
| Cn1c(-c2ccc3ccccc3c2)nnc1S(C)(=O)=O | 204 to 206 °C |
| COC(=O)c1cc(C)c(-n2c(C)ccc2C)c(C)c1 | 104 to 106 °C |
| CCN(C(=O)C1CCC1)c1cccc(-c2ccc3nnc(C)n3n2)c1 | 157 to 159 °C |
| CSc1ncccc1NC(=O)CCCCCCCCSc1nc2ccccc2o1 | 84 to 85 °C |

| Compound | melting point |
| --- | --- |
| COc1ccc2[nH]c(SCc3nccc(N4CCOCC4)n3)nc2c1 | 188 to 192 °C |
| COc1cc2c3c(c1OC)CN(C)CC3Cc1cc3c(cc1-2)OCO3 (stereo not given) | 169 to 172 °C |
| COc1ccc2c(c1)CCC(n1cc[nH]c1=S)C2 (stereo not given) | 226 to 227 °C |
| NC(C=Cc1ccc(Cl)cc1)=NO | 102 to 104 °C |
| CC(C)(C)c1cc(=O)cc(C(C)(C)C)s1 | 97 to 98 °C |
| COc1cc(/C=C/C(=O)CC(=O)c2ccccc2)ccc1O | 159 to 162 °C |
| CC(=O)OC1=C(C(=O)c2ccc(C)cc2)C(c2ccc(OC(F)(F)F)cc2)N(c2ccc(C)nn2)C1=O (stereo not given) | 165 to 166 °C |
| CC(Cc1ccc(Oc2cc(Oc3ccccc3)nc(N3CCN(Cc4ccccc4)CC3)n2)cc1)(Oc1ccccc1)C(=O)O (stereo not given) | 135 to 137 °C |
| CCN1CC2CCCC2C1CNC(=O)c1cc(S(N)(=O)=O)ccc1OC (stereo not given) | 232 °C |
| Cc1[nH]c2cccc3c2c1CC1C3=CC(C(=O)NN)CN1C (stereo not given) | 235 to 240 °C |
| CC(=O)Nc1cc(C(C)(C)C)c(Cl)cc1CN(C)C1CCCCC1 | 174 to 176 °C |
| Cn1cc(-c2cnc3c(c2)ncn3Cc2ccc3ncccc3c2)cn1 | 150 to 152 °C |
| CCCCC1(N2CCCC2)CCC(c2[nH]c3ccccc3c2CCc2ccncc2)CC1 (stereo not given) | 165 to 175 °C |
| CCCCCCCCCCCCc1ccsc1-c1ccc2c(c1)c(=O)c1cc3c(cc12)c(=O)c1cc(-c2sccc2CCCCCCCCCCCC)ccc13 | 152 to 153 °C |
| Cc1cnc2c(-c3nc[nH]n3)c(Cl)ccc2c1 | 274 to 276 °C |
| COC(=O)c1ccc(F)cc1SC(=O)N(C)C | 190 °C |
| CCCn1c(=S)[nH]c(=S)c2[nH]c(C3CC3)nc21 | > 245 °C |
| CC(C)CC1(C(N)C(=O)OC(C)(C)C)CCN(CCc2ccccc2)C1=O (stereo not given) | 111 to 113 °C |
| C=CCc1cc(-c2cc(CC)cc(CC=C)c2O)ccc1O | 47 to 48 °C |
| COC(=O)CC1(OCc2ccccc2)C=CC=C(c2ccccc2)C1 (stereo not given) | 50 to 52 °C |
| O=Cc1ccc(-c2cccc3cncn23)cc1 | 144 to 146 °C |
| CS(=O)(=O)c1ccc(-n2nc(C(F)(F)F)cc2-c2ccc(-c3ccco3)c(Cl)c2)cc1 | 143 to 145 °C |
| COC(=O)C1OC(c2cc(-c3ncc(C(F)(F)F)cc3Cl)ccc2Cl)OC1C(=O)OC (stereo not given) | 48 to 53 °C |
| COCCOc1ccc2c(Nc3ccc(Cl)cc3Cl)c(C#N)cnc2c1 | 144 to 145 °C |
| Cc1cc2n(c1)Cc1cc(Cl)ccc1N=C2N1CCN(CC(C)(C)C(=O)O)CC1 | 246 °C |
